Assay results from the supplement of paper PMC9334596.
Structures can show the parent of a compound that is named as a salt.

Tested on: mPer2Luc MEF
Experiment: PER2::LUC luminescence relative to vehicle control (fold of vehicle); higher = higher PER2::LUC reporter signal
Experimental: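 Secondary dose-response validation of 72 circadian-modulating compounds in mPer2Luc MEFs, threefold dilution series of six doses from 10 uM down to 0.04 uM. PER2::LUC luminescence read at 24 h and 30 h after treatment, normalised to vehicle (DMSO) control.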

[1] = time after treatment: 24-hour, concentration: 0.04μM
[2] = time after treatment: 24-hour, concentration: 0.37μM
[3] = time after treatment: 24-hour, concentration: 3.33μM
[4] = time after treatment: 24-hour, concentration: 10μM
[5] = time after treatment: 30-hour, concentration: 0.04μM
[6] = time after treatment: 30-hour, concentration: 0.37μM
[7] = time after treatment: 30-hour, concentration: 3.33μM
[8] = time after treatment: 30-hour, concentration: 10μM

| SMILES | PER2::LUC luminescence [1] | PER2::LUC luminescence [2] | PER2::LUC luminescence [3] | PER2::LUC luminescence [4] | PER2::LUC luminescence [5] | PER2::LUC luminescence [6] | PER2::LUC luminescence [7] | PER2::LUC luminescence [8] |
| --- | --- | --- | --- | --- | --- | --- | --- | --- |
| Cc1ccc(-n2nc(C(C)(C)C)cc2NC(=O)Nc2ccc(OCCN3CCOCC3)c3ccccc23)cc1 [BIRB 796 (Doramapimod)] | 0.968 | 0.966 | 0.963 | 1.09 | 0.892 | 0.941 | 0.924 | 1.26 |
| CC(C)c1cnn2c(NCc3ccccc3)cc(NCCCCCCN)nc12 [BS-181] | 1.05 | 0.946 | 0.807 | 0.33 | 0.972 | 0.943 | 0.934 | 0.422 |
| C=CC(=O)Nc1cccc(Nc2nc(Nc3ccc(Oc4ccnc(C(=O)NC)c4)cc3)ncc2F)c1 [CNX-774] | 0.953 | 0.958 | 0.839 | 0.44 | 1.01 | 0.966 | 0.857 | 0.586 |
| O=C(O)CCCCC(CCSCc1ccccc1)SCc1ccccc1 (stereo not drawn) [CPI-613] | 1 | 0.991 | 1.05 | 1.09 | 1.02 | 0.999 | 1.04 | 1.03 |
| O=C(O)c1ccc2c(c1)nc(Nc1cccc(Cl)c1)c1ccncc12 [CX-4945] | 1.13 | 1.06 | 1.05 | 0.842 | 1.11 | 1.05 | 1.08 | 1.06 |
| Cc1ccc([C@@H]2O[C@H](CO)[C@@H](O)[C@H](O)[C@H]2O)cc1Cc1ccc(-c2ccc(F)cc2)s1 [Canagliflozin] | 1.01 | 0.998 | 0.985 | 1.09 | 0.996 | 0.996 | 0.964 | 0.974 |
| COc1cc2c(Oc3ccc4[nH]c(C)cc4c3F)ncnc2cc1OCCCN1CCCC1 [Cediranib] | 0.767 | 0.585 | 0.35 | 0.033 | 0.662 | 0.496 | 0.306 | 0.019 |
| O=C(c1ccc(F)c(F)c1Nc1ccc(I)cc1F)N1CC(O)([C@@H]2CCCCN2)C1 [Cobimetinib] | 0.419 | 0.495 | 0.11 | 0.015 | 0.459 | 0.437 | 0.168 | 0.007 |
| CC1=C2C[C@H]3[C@@H](CC=C4C[C@@H](O)CC[C@@]43C)[C@@H]2CC[C@]12O[C@@H]1C[C@H](C)CN[C@H]1[C@H]2C [Cyclopamine] | 0.834 | 0.74 | 0.421 | 0.178 | 0.991 | 0.999 | 0.766 | 0.229 |
| CNC(=O)c1cc(Oc2ccc(NC(=O)Nc3cc(C(C)(C)C)nn3-c3ccc4ncccc4c3)c(F)c2)ccn1 [DCC-2036] | 1.27 | 1.3 | 1.28 | 1.1 | 1.72 | 1.81 | 1.74 | 1.27 |
| O=c1c(-c2ccc(O)cc2)coc2cc(O)ccc12 [Daidzein] | 1.01 | 0.97 | 1.1 | 1.3 | 0.995 | 1.04 | 1.11 | 1.59 |
| Cc1nc(Nc2ncc(C(=O)Nc3c(C)cccc3Cl)s2)cc(N2CCN(CCO)CC2)n1 [Dasatinib] | 0.438 | 0.416 | 0.269 | 0.074 | 0.368 | 0.366 | 0.244 | 0.084 |
| CN1CCN(c2ccc3nc(-c4c(N)c5c(F)cccc5[nH]c4=O)[nH]c3c2)CC1 [Dovitinib (TKI-258)] | 0.917 | 0.895 | 0.651 | 0.477 | 0.945 | 0.895 | 0.609 | 0.29 |
| O=C(/C=C/c1cccnc1)NCCCCC1CCN(C(=O)c2ccccc2)CC1 [FK866] | 0.987 | 1.02 | 0.955 | 0.89 | 0.67 | 0.643 | 0.595 | 0.49 |
| C[C@@H](O[C@H]1OCCN(Cc2nn(P(=O)(O)O)c(=O)[nH]2)[C@H]1c1ccc(F)cc1)c1cc(C(F)(F)F)cc(C(F)(F)F)c1 [Fosaprepitant dimeglumine] | 1.06 | 1.02 | 0.627 | 0.456 | 0.978 | 0.951 | 0.891 | 0.849 |
| NCC(=O)N1C[C@H](NC(=O)c2ccccc2)C[C@H]1C(=O)O [GAP-134 (Hydrochloride)] | 0.994 | 0.988 | 1.05 | 1.04 | 1.04 | 1.04 | 1.06 | 1.02 |
| CC(C)NC[C@@H](C(=O)N1CCN(c2ncnc3c2[C@H](C)C[C@H]3O)CC1)c1ccc(Cl)cc1 [GDC-0068] | 0.898 | 0.743 | 0.674 | 0.481 | 0.917 | 0.776 | 0.619 | 0.434 |
| Cc1ccc(NC(=O)Nc2cc(C(F)(F)F)ccc2F)cc1Nc1ccc2c(c1)NC(=O)/C2=C\c1ccc[nH]1 [GNF-5837] | 1.07 | 1.06 | 1.15 | 0.539 | 1.05 | 1.05 | 1.2 | 0.751 |
| CC(C)c1onc(-c2c(Cl)cccc2Cl)c1COc1ccc(/C=C/c2cccc(C(=O)O)c2)c(Cl)c1 [GW4064] | 1.04 | 1.08 | 1.24 | 1.88 | 1.08 | 1.1 | 1.32 | 2.19 |
| COc1cc(OC)cc(C(=O)Nc2ccc(Cl)c(-c3nc4ccc(N(C)C)cc4[nH]3)c2)c1 [HhAntag] | 1.03 | 1.07 | 1.03 | 1.12 | 0.988 | 1.04 | 1.12 | 1.44 |
| O=C(Cc1ccc(-c2ccc(OCCN3CCOCC3)cc2)cn1)NCc1ccccc1 [KX2-391] | 0.85 | 0.597 | 0.429 | 0.365 | 0.786 | 0.627 | 0.497 | 0.478 |
| Cc1cc2sc(NC(=O)Cc3ccccc3)nc2cc1Cl [LH-846] | 1.17 | 1.3 | 1.46 | 1.28 | 1.37 | 1.53 | 1.75 | 1.26 |
| COc1cc(C(=O)N2CCC(N3CCN(C)CC3)CC2)ccc1Nc1ncc2c(n1)N(C)c1ccccc1C(=O)N2C [LRRK2-IN-1] | 0.815 | 0.751 | 0.337 | 0.1 | 0.817 | 0.716 | 0.351 | 0.098 |
| Cn1cc(/C=C/C(=O)c2cccc(F)c2)cc1/C=C/C(=O)NO [MC1568] | 0.933 | 0.956 | 0.979 | 1.34 | 0.907 | 0.894 | 0.843 | 1.04 |
| Cc1cccc(C#Cc2ccccc2)n1 [MPEP Hydrochloride] | 1.11 | 1.19 | 1.33 | 1.39 | 1.22 | 1.41 | 1.57 | 1.73 |
| O=C(NC1CC1)c1cc(-c2cccs2)on1 [N-cyclopropyl-5-(thiophen-2-yl)-1,2-oxazole-3-carboxamide] | 1.3 | 1.33 | 1.66 | 1.76 | 1.37 | 1.44 | 1.79 | 1.99 |
